For the assay, the target named is MCH receptor (Homo sapiens, UniProt Q99705). The experiment in a line: High throughput functional screening FLIPR/FDSS6000 (intracellular Ca2+ evoked by MCH). The assay is classed as cell-based. To be noted: FLIPR/FDSS, antagonist activity vs 50 nM MCH; class by percent of control at 10^−7 M or IC50; table after the classification; read-out: class. The essentials:
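For antagonist testing, compound-treated cells (30 min, 37 °C) were stimulated with 50 nM MCH and intracellular Ca2+ followed by Fluo4 fluorescence on FLIPR/FDSS6000. Receptor was a constitutively active, non-endogenous MCH receptor; dye loading 4 μM Fluo4-AM, 1 h, 37 °C.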

Molecules are shown by their SMILES. Where a name gives a salt, the structure may show the parent alone.

Regarding `COc1cc(OC)nc(N[C@H]2CC[C@@H](NC(=O)c3ccc(F)c(F)c3)CC2)n1` [Example 3132, N-[cis-4-(4,6-Dimethoxy-pyrimidin-2-ylamino)-cyclohexyl]-3,4-difluoro-benzamide hydrochloride], the IC50 was > 200 nM.

Consider `O=C(N[C@H]1CC[C@@H](Nc2nccc(C(F)(F)F)n2)CC1)c1cccnc1Oc1ccccc1` [Example 3133, 2-Phenoxy-N-[cis-4-(4-trifluoromethyl-pyrimidin-2-yl)-amino-cyclohexyl]-nicotinamide hydrochloride], for which the IC50 was > 200 nM.

Take `COc1ccnc(N[C@H]2CC[C@@H](NC(=O)c3cccnc3Oc3ccccc3)CC2)n1` [Example 3134, N-[cis-4-(4-Methoxy-pyrimidin-2-ylamino)-cyclohexyl]-2-phenoxy-nicotinamide hydrochloride]: the IC50 was > 200 nM.

With `COc1cc(OC)nc(N[C@H]2CC[C@@H](NC(=O)c3cccnc3Oc3ccccc3)CC2)n1` [Example 3135, N-[cis-4-(4,6-Dimethoxy-pyrimidin-2-ylamino)-cyclohexyl]-2-phenoxy-nicotinamide hydrochloride], the IC50 was > 200 nM.

With `CN(C)c1nc(N[C@H]2CC[C@@H](NC(=O)c3cccnc3Oc3ccccc3)CC2)ncc1-c1ccccc1` [Example 3136, N-[cis-4-(4-Dimethylamino-5-phenyl-pyrimidin-2-ylamino)-cyclohexyl]-2-phenoxy-nicotinamide hydrochloride], the IC50 is > 200 nM.

Regarding `CN(C)N(c1ncc(Cl)cn1)[C@H]1CC[C@@H](NC(=O)c2cccnc2Oc2ccccc2)CC1` [Example 3137, N-[cis-4-(5-Chloro-dimethylamino-pyrimidin-2-ylamino)-cyclohexyl]-2-phenoxy-nicotinamide hydrochloride], the IC50 was in the range of 50 to 200 nM.

`CN(C)c1nc(N[C@H]2CC[C@@H](NC(=O)c3ccc(F)c(F)c3)CC2)ncc1-c1ccccc1` [Example 3138, N-[cis-4-(4-Dimethylamino-5-phenyl-pyrimidin-2-ylamino)-cyclohexyl]-3,4-difluoro-benzamide hydrochloride]: the IC50 is 50 to 200 nM.

On to `CN(C)c1nc(N[C@H]2CC[C@@H](NC(=O)c3ccc(F)c(F)c3)CC2)ncc1Cl` [Example 3139, N-[cis-4-(5-Chloro-4-dimethylamino-pyrimidin-2-ylamino)-cyclohexyl]-3,4-difluoro-benzamide hydrochloride], for which the IC50 lay in the range of 50 to 200 nM.

As for `CN(C)c1nc(N[C@H]2CC[C@@H](NC(=O)c3cccnc3Oc3ccccc3)CC2)ncc1F` [Example 3140, N-[cis-4-(4-Dimethylamino-5-fluoro-pyrimidin-2-ylamino)-cyclohexyl]-2-phenoxy-nicotinamide hydrochloride], the IC50 was 50 to 200 nM.

As to `CN(C)c1nc(N[C@H]2CC[C@@H](NC(=O)c3cccnc3Oc3ccccc3)CC2)ncc1Br` [Example 3141, N-[cis-4-(5-Bromo-4-dimethylamino-pyrimidin-2-ylamino)-cyclohexyl]-2-phenoxy-nicotinamide hydrochloride], the IC50 was in the range of 50 to 200 nM.

With `Cc1cc(C)nc(N[C@H]2CC[C@@H](NC(=O)c3ccc(F)c(F)c3)CC2)n1` [Example 3142, N-[cis-4-(4,6-Dimethyl-pyrimidin-2-ylamino)-cyclohexyl]-3,4-difluoro-benzamide hydrochloride], the IC50 is > 200 nM.

For `Cc1cc(C)nc(N[C@H]2CC[C@@H](NC(=O)c3cccnc3Oc3ccccc3)CC2)n1` [Example 3143, N-[cis-4-(4,6-Dimethyl-pyrimidin-2-ylamino)-cyclohexyl]-2-phenoxy-nicotinamide hydrochloride], the IC50 is > 200 nM.

For the molecule `O=C(N[C@H]1CC[C@@H](Nc2ncccn2)CC1)c1ccc(F)c(F)c1` [Example 3144, 3,4-Difluoro-N-[cis-4-(pyrimidin-2-ylamino)-cyclohexyl]-benzamide hydrochloride], the IC50 was > 200 nM.

For `CN(C)c1ccnc(N[C@H]2CC[C@@H](CNC(=O)c3cccnc3Oc3ccccc3)CC2)n1` [Example 3145, N-[cis-4-(4-Dimethylamino-pyrimidin-2-ylamino)-cyclohexylmethyl]-2-phenoxy-nicotinamide hydrochloride], the IC50 was > 200 nM.

As to `O=C(N[C@H]1CC[C@@H](Nc2ccc3ccccc3n2)CC1)c1cccc(O)c1` [Example 3146, 3-Hydroxy-N-[cis-4-(quinolin-2-ylamino)-cyclohexyl]-benzamide hydrochloride], the IC50 is < 50 nM.

For `COC(=O)c1cccc(C(=O)N[C@H]2CC[C@@H](Nc3ccc4ccccc4n3)CC2)c1` [Example 3147, N-[cis-4-(Quinolin-2-ylamino)-cyclohexyl]-isophthalamic acid methyl ester hydrochloride], the IC50 lay in the range of 50 to 200 nM.

On to `O=C(N[C@H]1CC[C@@H](Nc2ccc3ccccc3n2)CC1)c1cc(C(F)(F)F)cc(C(F)(F)F)c1` [Example 3148, N-[cis-4-(Quinolin-2-ylamino)-cyclohexyl]-3,5-bis-trifluoromethyl-benzamide hydrochloride], for which the IC50 is > 200 nM.

With `O=C(N[C@H]1CC[C@@H](Nc2ccc3ccccc3n2)CC1)c1cccc(OC(F)(F)F)c1` [Example 3149, N-[cis-4-(Quinolin-2-ylamino)-cyclohexyl]-3-trifluoromethoxy-benzamide hydrochloride], the IC50 was in the range of 50 to 200 nM.

Take `O=C(O)c1cccc(C(=O)N[C@H]2CC[C@@H](Nc3ccc4ccccc4n3)CC2)c1` [Example 3150, N-[cis-4-(Quinolin-2-ylamino)-cyclohexyl]-isophthalamic acid]: the IC50 was > 200 nM.

Regarding `CCN(CC(=O)N[C@H]1CC[C@@H](Nc2ccc3ccccc3n2)CC1)c1ccccc1` [Example 3151, C-(Ethyl-phenyl-amino)-N-[cis-4-(quinolin-2-ylamino)-cyclohexyl]-acetamide dihydrochloride], the IC50 is < 50 nM.

With `O=C(N[C@H]1CC[C@@H](Nc2ccc3ccccc3n2)CC1)c1cc(F)cc(F)c1` [Example 3152, 3,5-Difluoro-N-[cis-4-(quinolin-2-ylamino)-cyclohexyl]-benzamide hydrochloride], the IC50 was < 50 nM.

In the case of `O=C(N[C@H]1CC[C@@H](Nc2ccc3ccccc3n2)CC1)c1ccc(Cl)c(F)c1` [Example 3153, 4-Chloro-3-fluoro-N-[cis-4-(quinolin-2-ylamino)-cyclohexyl]-benzamide-hydrochloride], the IC50 was < 50 nM.

On to `CCN(CC(=O)N[C@H]1CC[C@@H](Nc2ccc3ccccc3n2)CC1)c1ccc(Cl)cc1` [Example 3154, C-[(4-Chloro-phenyl)-ethyl-amino]-N-[cis-4-(quinolin-2-ylamino)-cyclohexyl]-acetamide dihydrochloride], for which the IC50 is < 50 nM.

As for `NC(=O)c1cccc(C(=O)N[C@H]2CC[C@@H](Nc3ccc4ccccc4n3)CC2)c1` [Example 3155, N-[cis-4-(Quinolin-2-ylamino)cyclohexyl]-isophthalamide hydrochloride], the IC50 is > 200 nM.

Turning to `O=C(N[C@H]1CC[C@@H](NCc2ccc3ccccc3n2)CC1)c1ccc(F)c(F)c1` [Example 3156, 3,4-Difluoro-N-{cis-4-[(quinolin-2-ylmethyl)-amino]-cyclohexyl}-benzamide dihydrochloride], the IC50 was > 200 nM.

`Cc1cc(N[C@H]2CC[C@@H](NC(=O)c3cc(C(F)(F)F)cc(C(F)(F)F)c3)CC2)nc2ccccc12` [Example 3157, N-[cis-4-(4-Methyl-quinolin-2-ylamino)-cyclohexyl]-3,5-bis-trifluoromethyl-benzamide hydrochloride]: the IC50 lay within 50 to 200 nM.

As to `Cc1cc(N[C@H]2CC[C@@H](NC(=O)c3cccc(OC(F)(F)F)c3)CC2)nc2ccccc12` [Example 3158, N-[cis-4-(4-Methyl-quinolin-2-ylamino)-cyclohexyl]-3-trifluoromethoxy-benzamide hydrochloride], the IC50 was < 50 nM.

On to `Cc1cc(N[C@H]2CC[C@@H](NC(=O)c3cccc(O)c3)CC2)nc2ccccc12` [Example 3160, 3-Hydroxy-N-[cis-4-(4-methyl-quinolin-2-ylamino)-cyclohexyl]-benzamide hydrochloride], for which the IC50 is < 50 nM.

Take `Cc1cc(N[C@H]2CC[C@@H](NC(=O)c3cccnc3N)CC2)nc2ccccc12` [Example 3161, 2-Amino-N-[cis-4-(4-methyl-quinolin-2-ylamino)-cyclohexyl]-nicotinamide dihydrochloride]: the IC50 lay within 50 to 200 nM.

On to `Cc1cc(N[C@H]2CC[C@@H](NC(=O)c3cccc(F)c3F)CC2)nc2ccccc12` [Example 3162, 2,3-Difluoro-N-[cis-4-(4-methyl-quinolin-2-ylamino)-cyclohexyl]-benzamide hydrochloride], for which the IC50 lay within 50 to 200 nM.

With `Cc1cc(N[C@H]2CC[C@@H](NC(=O)c3ccc(F)cc3F)CC2)nc2ccccc12` [Example 3163, 2,4-Difluoro-N-[cis-4-(4-methyl-quinolin-2-ylamino)-cyclohexyl]-benzamide hydrochloride], the IC50 is < 50 nM.

For the molecule `Cc1cc(N[C@H]2CC[C@@H](NC(=O)c3cc(F)ccc3F)CC2)nc2ccccc12` [Example 3164, 2,5-Difluoro-N-[cis-4-(4-methyl-quinolin-2-ylamino)-cyclohexyl]-benzamide hydrochloride], the IC50 lay within 50 to 200 nM.

Take `Cc1cc(N[C@H]2CC[C@@H](NC(=O)c3c(F)cccc3F)CC2)nc2ccccc12` [Example 3165, 2,6-Difluoro-N-[cis-4-(4-methylquinolin-2-ylamino)-cyclohexyl]-benzamide hydrochloride]: the IC50 lay in the range of 50 to 200 nM.

Consider `Cc1cc(N[C@H]2CC[C@@H](NC(=O)c3cc(F)cc(F)c3)CC2)nc2ccccc12` [Example 3166, 3,5-Difluoro-N-[cis-4-(4-methylquinolin-2-ylamino)-cyclohexyl]-benzamide hydrochloride], for which the IC50 is < 50 nM.

`Cc1cc(N[C@H]2CC[C@@H](NC(=O)c3ccc(Cl)c(F)c3)CC2)nc2ccccc12` [Example 3168, 4-Chloro-3-fluoro-N-[cis-4-(4-methyl-quinolin-2-ylamino)-cyclohexyl]-benzamide hydrochloride]: the IC50 is < 50 nM.

Values taken from US20050197350A1, “Novel quinoline, tetrahydroquinazoline, and pyrimidine derivatives and methods of treatment related to the use thereof” (TAISHO PHARMACEUTICAL CO., LTD., priority 2003, published 2005).
